These results are taken from patent US8541002B2, “Vaccine for treatment and prevention of herpes simplex virus infection” (Agenus Inc., priority 2003, dated 2013).

This data set in a line: Turbidity assay for solubility of the peptides. The format is physicochemical. The note with it: solubility of the antigenic peptides in water or Dimethyl Sulfoxide (DMSO). How it is done: A number of antigenic peptides of the invention were synthesized by chemical synthesis as described in Section 5.1.1.
A turbidity assay was used to assess the solubility of the peptides. Turbidity assays used either a Varian Cary double-beam spectrophotometer, or a Molecular Devices Spectromax absorbance plate reader (for high throughput experiments). The spectrophotometer assay read every 2 nm between 340 nm and 360 nm, and averaged the values. Samples were analyzed in duplicate using a quartz micro-cuvette that holds about 200 uL. The plate reader assay used a 96-well plate format that read every 4 nm between 340 nm and 360 nm and averaged those values. Samples in this assay were run in triplicate.
`CSCC[C@H](NC(=O)[C@H](Cc1c[nH]c2ccccc12)NC(=O)[C@H](CO)NC(=O)[C@H](C)NC(=O)[C@H](Cc1c[nH]c2ccccc12)NC(=O)[C@H](Cc1c[nH]cn1)NC(=O)[C@H](Cc1ccc(O)cc1)NC(=O)[C@H](CC(C)C)NC(=O)[C@@H](NC(=O)[C@H](CO)NC(=O)[C@@H](NC(=O)[C@H](Cc1ccc(O)cc1)NC(=O)[C@H](C)NC(=O)[C@H](CC(C)C)NC(=O)[C@H](CC(C)C)NC(=O)[C@H](CCC(=O)O)NC(=O)[C@H](CO)NC(=O)[C@H](CC(C)C)NC(=O)[C@H](CCCNC(=N)N)NC(=O)[C@H](CC(C)C)NC(=O)[C@H](C)NC(=O)[C@@H](NC(=O)[C@H](CC(=O)O)NC(=O)[C@@H](NC(=O)[C@H](CO)NC(=O)[C@@H]1CCCN1C(=O)[C@H](CCCNC(=N)N)NC(=O)[C@H](CO)NC(=O)[C@@H]1CCCN1C(=O)[C@H](CC(=O)O)NC(=O)[C@H](C)N)[C@@H](C)O)[C@@H](C)O)C(C)C)C(C)C)C(=O)N[C@@H](CC(C)C)C(=O)N[C@@H](Cc1c[nH]c2ccccc12)C(=O)N[C@H](C(=O)N[C@@H](C)C(=O)O)[C@@H](C)O` [UL46-2]: the Solubility entry is reported as “DMSO”.

`CSCC[C@H](NC(=O)[C@@H]1CCCN1C(=O)CNC(=O)[C@H](C)NC(=O)CNC(=O)[C@H](CCCNC(=N)N)NC(=O)[C@H](CCCNC(=N)N)NC(=O)[C@@H](N)Cc1ccccc1)C(=O)N[C@@H](CCCNC(=N)N)C(=O)N[C@@H](C)C(=O)N[C@@H](CCCNC(=N)N)C(=O)N1CCC[C@H]1C(=O)N[C@@H](CCCNC(=N)N)C(=O)NCC(=O)N[C@@H](CCC(=O)O)C(=O)N[C@H](C(=O)N[C@@H](CCCNC(=N)N)C(=O)N[C@@H](Cc1ccccc1)C(=O)N[C@@H](CC(C)C)C(=O)N[C@@H](Cc1c[nH]cn1)C(=O)N[C@@H](Cc1ccc(O)cc1)C(=O)N[C@@H](CC(=O)O)C(=O)N[C@@H](CCC(=O)O)C(=O)N[C@@H](C)C(=O)NCC(=O)N[C@@H](Cc1ccc(O)cc1)C(=O)N[C@@H](C)C(=O)N[C@@H](CC(C)C)C(=O)N[C@@H](Cc1ccc(O)cc1)C(=O)N[C@@H](CCCNC(=N)N)C(=O)N[C@@H](CC(=O)O)C(=O)N[C@@H](CO)C(=O)N[C@@H](CO)C(=O)N[C@@H](CO)C(=O)N[C@@H](CC(=O)O)C(=O)O)C(C)C` [UL49-1]: the Solubility result is given as “water”.

Consider `CC(C)C[C@H](NC(=O)[C@H](CCCNC(=N)N)NC(=O)CNC(=O)[C@@H](NC(=O)[C@H](C)NC(=O)[C@H](C)NC(=O)[C@H](CS)NC(=O)[C@H](Cc1ccccc1)NC(=O)[C@@H](NC(=O)[C@H](CCCNC(=N)N)NC(=O)[C@H](CCCCN)NC(=O)[C@H](CC(N)=O)NC(=O)[C@H](Cc1ccccc1)NC(=O)CNC(=O)[C@H](C)NC(=O)[C@@H](NC(=O)[C@H](CCCNC(=N)N)NC(=O)[C@@H]1CCCN1C(=O)[C@@H](NC(=O)[C@H](Cc1c[nH]c2ccccc12)NC(=O)[C@@H]1CCCN1C(=O)[C@H](C)NC(=O)[C@@H](NC(=O)[C@@H]1CCCN1C(=O)[C@@H](N)CO)[C@@H](C)O)[C@@H](C)O)C(C)C)C(C)C)C(C)C)C(=O)N[C@@H](C)C(=O)N[C@@H](C)C(=O)N[C@H](C(=O)N[C@@H](Cc1c[nH]cn1)C(=O)N[C@@H](C)C(=O)N[C@@H](CCCNC(=N)N)C(=O)N[C@@H](CC(C)C)C(=O)N[C@@H](C)C(=O)N[C@@H](C)C(=O)N[C@H](C(=O)O)C(C)C)[C@@H](C)O` [UL49-2], for which the Solubility entry is “water”.

Regarding `CC[C@H](C)[C@H](NC(=O)[C@@H](NC(=O)[C@@H]1CCCN1C(=O)[C@@H](N)CC(=O)O)[C@@H](C)CC)C(=O)NCC(=O)N[C@H](C(=O)N[C@@H](C)C(=O)N[C@@H](C)C(=O)N[C@@H](C)C(=O)N[C@H](C(=O)N[C@@H](CC(C)C)C(=O)N[C@@H](CCC(=O)O)C(=O)N[C@@H](CC(N)=O)C(=O)N[C@@H](CC(C)C)C(=O)N[C@@H](C)C(=O)N[C@H](C(=O)N[C@@H](CCCNC(=N)N)C(=O)N[C@@H](CC(C)C)C(=O)N[C@@H](CCCNC(=N)N)C(=O)N1CCC[C@H]1C(=O)N[C@@H](Cc1ccccc1)C(=O)N[C@@H](CC(C)C)C(=O)N[C@@H](CCC(N)=O)C(=O)N[C@@H](CS)C(=O)N[C@@H](Cc1ccc(O)cc1)C(=O)N[C@@H](CC(C)C)C(=O)N[C@@H](CCCCN)C(=O)N[C@@H](C)C(=O)N[C@@H](CCCNC(=N)N)C(=O)NCC(=O)N[C@@H](CC(C)C)C(=O)N[C@@H](CS)C(=O)NCC(=O)N[C@@H](CC(C)C)C(=O)N[C@@H](CC(=O)O)C(=O)O)[C@@H](C)O)C(C)C)[C@@H](C)O` [UL54-1], the Solubility result is “water”.

`CC[C@H](C)[C@H](NC(=O)[C@H](CC(=O)O)NC(=O)[C@H](CCCCN)NC(=O)[C@@H](NC(=O)[C@H](CC(=O)O)NC(=O)[C@H](CO)NC(=O)[C@H](CC(C)C)NC(=O)[C@H](CCCNC(=N)N)NC(=O)[C@H](CCCNC(=N)N)NC(=O)[C@H](CCCNC(=N)N)NC(=O)[C@H](CO)NC(=O)[C@H](CS)NC(=O)[C@H](CC(C)C)NC(=O)[C@H](CC(=O)O)NC(=O)[C@H](CC(=O)O)NC(=O)[C@@H](N)CC(C)C)[C@@H](C)CC)C(=O)N[C@@H](C)C(=O)N[C@@H](CO)C(=O)N[C@@H](Cc1ccccc1)C(=O)N[C@H](C(=O)N[C@@H](CC(C)C)C(=O)N[C@H](C(=O)N[C@H](C(=O)N[C@@H](CC(C)C)C(=O)N[C@@H](C)C(=O)N[C@@H](CCCNC(=N)N)C(=O)N[C@@H](CC(C)C)C(=O)N[C@@H](C)C(=O)N[C@@H](CC(N)=O)C(=O)N[C@@H](CCCNC(=N)N)C(=O)N[C@H](C(=O)N[C@@H](CCC(=O)O)C(=O)N[C@@H](CCCNC(=N)N)C(=O)NCC(=O)N[C@H](C(=O)O)C(C)C)C(C)C)[C@@H](C)CC)C(C)C)C(C)C` [UL54-2]: the Solubility entry is given as “water”.

In the case of `CSCC[C@H](NC(=O)[C@H](CC(C)C)NC(=O)[C@H](Cc1ccccc1)NC(=O)CNC(=O)[C@H](CC(C)C)NC(=O)[C@H](CC(N)=O)NC(=O)[C@H](CC(=O)O)NC(=O)[C@H](CCC(=O)O)NC(=O)[C@H](CO)NC(=O)[C@@H](NC(=O)[C@H](C)NC(=O)[C@H](CO)NC(=O)[C@H](Cc1ccccc1)NC(=O)[C@H](CO)NC(=O)[C@H](CC(=O)O)NC(=O)[C@H](Cc1ccc(O)cc1)NC(=O)[C@H](Cc1ccc(O)cc1)NC(=O)[C@H](CO)NC(=O)[C@H](Cc1c[nH]c2ccccc12)NC(=O)[C@@H](N)CCCNC(=N)N)C(C)C)C(=O)N[C@@H](Cc1c[nH]cn1)C(=O)N[C@@H](C)C(=O)N1CCC[C@H]1C(=O)N[C@@H](C)C(=O)N[C@@H](Cc1ccccc1)C(=O)N[C@@H](CCC(=O)O)C(=O)N[C@H](C(=O)N[C@@H](C)C(=O)NCC(=O)N[C@H](C(=O)N[C@@H](Cc1ccc(O)cc1)C(=O)N[C@@H](CC(C)C)C(=O)N[C@@H](CCCNC(=N)N)C(=O)N[C@@H](CC(C)C)C(=O)N[C@H](C(=O)O)C(C)C)[C@@H](C)O)[C@@H](C)O` [US06-1], the Solubility result was “DMSO”.
